Measured values published in ChEMBL document CHEMBL1201862, “PubChem BioAssay data set” (2004).
Calls of active or inactive are those of the source.

Experiments:
Cytochrome P450 2D6 = Cytochrome P450 2D6 (Homo sapiens, UniProt P10635);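 also: CYP2D6 member of a cytochrome P450 panel assay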
Cytochrome P450 2C9 [1] = target: T1, Cytochrome P450 2C9 (Homo sapiens, UniProt P11712)
[2] = target: Glucose-6-phosphate 1-dehydrogenase (Homo sapiens, UniProt P11413); assay: human G6PD enzyme inhibitors, dose response, selectivity assay for P. falciparum G6PD inhibitor project, biochemical, fluorescence (AID 504792); assay type: functional
[3] = A cytotoxicity screen of small molecule inhibitors of the PhoP region in Salmonella typhi identified in the primary screen. [Related pubchem assays: 1850, 1864, 1985 ]; assay type: functional
Vero = Vero cell cytotoxicity, cytotoxicity control for flavivirus capping enzyme inhibitors (AID 588742); assay type: functional; details: Chlorocebus sabaeus
[4] = target: T2, Sentrin-specific protease 8 (Homo sapiens, UniProt Q96LD8); assay type: functional
T2 sequence (Q96LD8 whole entry): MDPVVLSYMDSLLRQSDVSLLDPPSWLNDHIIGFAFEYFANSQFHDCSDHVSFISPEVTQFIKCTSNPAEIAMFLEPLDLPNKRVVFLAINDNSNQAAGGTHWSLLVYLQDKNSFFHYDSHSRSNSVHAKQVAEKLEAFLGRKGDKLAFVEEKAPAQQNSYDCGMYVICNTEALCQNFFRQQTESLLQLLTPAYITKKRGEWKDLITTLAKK

[5] = target: T2, Sentrin-specific protease 8; assay type: functional; remark: listed apart in the source
Cytochrome P450 3A4 = Cytochrome P450 3A4 (Homo sapiens, UniProt P08684); details: Potency;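 also: confirmatory qHTS run detecting inhibitors and substrates of CYP3A4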
Escherichia coli = assay: microbe, parasite or virus in culture
HEK293 = assay: inhibitors of LMP1-driven NF-kB reporter, dose response, cell-based, HEK293, luciferase, cherry-pick (AID 588343); assay type: functional; details: Homo sapiens
Beta-galactosidase = Beta-galactosidase (Escherichia coli, UniProt Q8VNN2); assay: Dose response counterscreen for EBI2 assay utilizing the enzyme, b-galactosidase.; assay type: functional
[6] = Luminescence Cell-Based Dose Response HTS to Identify Inhibitors of 5'UTR Stem-Loop Driven Prion Protein mRNA Translation in H4 Neuroglioblastoma Cells. [Related pubchem assays: 1827 (Project Summary), 1813 (Primary HTS)]; assay type: functional
HT-1080 = assay: cytotoxicity in HT1080 fibrosarcoma cells, cell-based, fluorescence readout (AID 620); assay type: functional; details: Homo sapiens
[7] = inhibitors of firefly luciferase expression or activity, dose response, H4 neuroglioma cells, luminescence (AID 1990); assay type: functional, cell-based
[8] = target: Luciferin 4-monooxygenase (Photinus pyralis, UniProt P08659); assay: Counter Screen for Luciferase-based Assay Positives. [Related pubchem assays: 620, 618, 411 ]
[9] = inhibitors of SNCA 5'UTR-driven reporter translation, confirmation, H4 neuroglioma cells, luminescence (AID 1988); assay type: functional, cell-based
Cytochrome P450 2C9 [10] = target: T1, Cytochrome P450 2C9; remark: listed apart in the source
[11] = intracellular Trypanosoma cruzi inhibitors in host cells – cell-based, plate reader, cherry-pick samples, set 3, dose response (AID 651818); assay type: functional;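 also: compounds incubated with infected cells for about four days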
[12] = target: T3, Histone-lysine N-methyltransferase NSD2 (Homo sapiens, UniProt O96028); assay type: biochemical
T3 sequence (O96028 whole entry): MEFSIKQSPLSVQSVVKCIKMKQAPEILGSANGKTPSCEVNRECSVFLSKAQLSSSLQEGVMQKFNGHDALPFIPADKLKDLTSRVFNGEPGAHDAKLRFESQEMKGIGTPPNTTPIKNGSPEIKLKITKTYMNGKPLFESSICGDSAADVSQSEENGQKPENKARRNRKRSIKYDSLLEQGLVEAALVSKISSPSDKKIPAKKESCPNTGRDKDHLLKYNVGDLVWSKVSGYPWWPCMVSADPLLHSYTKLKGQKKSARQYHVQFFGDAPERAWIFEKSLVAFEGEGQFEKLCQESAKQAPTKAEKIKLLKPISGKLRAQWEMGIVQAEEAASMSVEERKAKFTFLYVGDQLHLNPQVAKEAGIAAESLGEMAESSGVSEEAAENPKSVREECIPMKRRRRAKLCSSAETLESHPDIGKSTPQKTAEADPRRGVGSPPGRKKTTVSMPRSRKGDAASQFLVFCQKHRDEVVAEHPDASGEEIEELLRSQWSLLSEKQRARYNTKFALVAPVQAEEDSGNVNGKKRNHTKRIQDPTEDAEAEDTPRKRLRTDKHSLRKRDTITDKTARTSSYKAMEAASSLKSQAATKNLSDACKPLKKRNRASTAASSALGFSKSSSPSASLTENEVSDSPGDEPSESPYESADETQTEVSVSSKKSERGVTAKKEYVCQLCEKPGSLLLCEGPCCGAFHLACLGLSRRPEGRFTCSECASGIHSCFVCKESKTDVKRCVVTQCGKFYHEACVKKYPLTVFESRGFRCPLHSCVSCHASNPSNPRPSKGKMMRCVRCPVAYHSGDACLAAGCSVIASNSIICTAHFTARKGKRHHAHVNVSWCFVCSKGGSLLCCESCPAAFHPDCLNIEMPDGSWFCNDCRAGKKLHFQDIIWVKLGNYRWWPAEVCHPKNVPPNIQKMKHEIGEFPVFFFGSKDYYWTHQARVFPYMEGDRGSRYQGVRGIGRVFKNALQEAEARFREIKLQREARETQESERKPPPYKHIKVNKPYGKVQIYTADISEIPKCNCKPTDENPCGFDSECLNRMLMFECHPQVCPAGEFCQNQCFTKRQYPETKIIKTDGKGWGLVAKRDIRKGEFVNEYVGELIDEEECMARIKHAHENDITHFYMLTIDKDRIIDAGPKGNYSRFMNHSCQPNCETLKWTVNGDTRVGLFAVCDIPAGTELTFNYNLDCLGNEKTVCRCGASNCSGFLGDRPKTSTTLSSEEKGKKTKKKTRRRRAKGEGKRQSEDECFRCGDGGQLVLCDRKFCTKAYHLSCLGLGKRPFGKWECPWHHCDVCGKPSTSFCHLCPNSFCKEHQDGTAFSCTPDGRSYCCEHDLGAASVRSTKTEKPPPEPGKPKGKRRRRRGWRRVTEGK

Sequence of Cytochrome P450 3A4 (P08684 whole entry): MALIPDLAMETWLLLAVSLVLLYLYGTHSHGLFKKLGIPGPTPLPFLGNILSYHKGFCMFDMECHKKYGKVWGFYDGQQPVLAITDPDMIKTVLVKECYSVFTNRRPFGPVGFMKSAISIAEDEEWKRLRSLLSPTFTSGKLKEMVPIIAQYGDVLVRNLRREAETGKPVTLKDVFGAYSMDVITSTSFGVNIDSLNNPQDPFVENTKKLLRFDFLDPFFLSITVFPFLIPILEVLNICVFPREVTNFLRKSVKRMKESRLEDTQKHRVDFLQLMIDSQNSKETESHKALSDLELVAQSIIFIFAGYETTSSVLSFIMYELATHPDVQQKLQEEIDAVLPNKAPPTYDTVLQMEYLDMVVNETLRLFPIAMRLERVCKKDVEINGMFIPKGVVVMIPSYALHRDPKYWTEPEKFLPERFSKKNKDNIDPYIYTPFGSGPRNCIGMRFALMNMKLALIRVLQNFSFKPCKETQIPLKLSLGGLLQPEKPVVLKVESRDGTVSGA
Sequence of Beta-galactosidase (Q8VNN2 whole entry): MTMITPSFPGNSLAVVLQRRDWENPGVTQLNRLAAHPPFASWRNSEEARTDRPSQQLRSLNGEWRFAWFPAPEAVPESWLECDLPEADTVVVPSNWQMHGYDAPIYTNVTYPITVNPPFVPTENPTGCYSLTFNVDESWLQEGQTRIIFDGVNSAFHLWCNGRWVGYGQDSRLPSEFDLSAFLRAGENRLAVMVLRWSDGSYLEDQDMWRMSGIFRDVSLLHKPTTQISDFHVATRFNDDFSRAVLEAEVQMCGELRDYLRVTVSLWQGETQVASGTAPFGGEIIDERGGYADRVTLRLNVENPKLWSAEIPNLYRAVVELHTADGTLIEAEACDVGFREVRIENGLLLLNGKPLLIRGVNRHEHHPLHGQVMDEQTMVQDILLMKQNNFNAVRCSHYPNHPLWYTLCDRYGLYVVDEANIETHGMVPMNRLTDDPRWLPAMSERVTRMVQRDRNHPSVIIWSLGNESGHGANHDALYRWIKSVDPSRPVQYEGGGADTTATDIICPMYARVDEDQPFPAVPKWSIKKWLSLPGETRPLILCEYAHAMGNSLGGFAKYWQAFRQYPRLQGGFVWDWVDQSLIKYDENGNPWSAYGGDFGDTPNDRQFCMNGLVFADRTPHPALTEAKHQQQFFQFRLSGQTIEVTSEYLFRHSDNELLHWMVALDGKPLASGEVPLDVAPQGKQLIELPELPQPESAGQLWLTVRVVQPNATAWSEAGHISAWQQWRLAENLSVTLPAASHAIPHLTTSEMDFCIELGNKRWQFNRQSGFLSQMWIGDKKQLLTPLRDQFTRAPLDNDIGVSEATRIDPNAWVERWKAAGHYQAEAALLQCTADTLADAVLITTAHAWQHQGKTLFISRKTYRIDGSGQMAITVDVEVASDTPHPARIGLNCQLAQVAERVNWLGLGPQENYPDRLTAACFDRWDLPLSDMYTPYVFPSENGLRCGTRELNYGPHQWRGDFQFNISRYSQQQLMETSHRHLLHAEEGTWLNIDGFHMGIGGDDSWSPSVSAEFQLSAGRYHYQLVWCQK
Sequence of Glucose-6-phosphate 1-dehydrogenase (P11413 whole entry): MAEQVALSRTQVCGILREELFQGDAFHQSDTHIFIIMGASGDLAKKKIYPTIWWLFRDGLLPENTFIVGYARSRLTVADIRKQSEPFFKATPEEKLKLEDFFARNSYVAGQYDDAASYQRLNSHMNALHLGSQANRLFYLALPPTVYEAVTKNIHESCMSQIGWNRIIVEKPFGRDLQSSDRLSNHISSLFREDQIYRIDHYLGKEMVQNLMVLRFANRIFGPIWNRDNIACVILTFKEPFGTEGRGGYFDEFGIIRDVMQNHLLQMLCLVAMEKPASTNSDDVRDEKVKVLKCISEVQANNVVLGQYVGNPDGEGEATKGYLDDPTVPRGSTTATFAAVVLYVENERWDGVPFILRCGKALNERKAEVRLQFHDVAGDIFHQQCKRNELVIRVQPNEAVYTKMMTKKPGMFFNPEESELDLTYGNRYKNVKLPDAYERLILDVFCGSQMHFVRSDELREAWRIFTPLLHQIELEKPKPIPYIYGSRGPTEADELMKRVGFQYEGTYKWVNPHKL
T1 sequence (P11712 whole entry): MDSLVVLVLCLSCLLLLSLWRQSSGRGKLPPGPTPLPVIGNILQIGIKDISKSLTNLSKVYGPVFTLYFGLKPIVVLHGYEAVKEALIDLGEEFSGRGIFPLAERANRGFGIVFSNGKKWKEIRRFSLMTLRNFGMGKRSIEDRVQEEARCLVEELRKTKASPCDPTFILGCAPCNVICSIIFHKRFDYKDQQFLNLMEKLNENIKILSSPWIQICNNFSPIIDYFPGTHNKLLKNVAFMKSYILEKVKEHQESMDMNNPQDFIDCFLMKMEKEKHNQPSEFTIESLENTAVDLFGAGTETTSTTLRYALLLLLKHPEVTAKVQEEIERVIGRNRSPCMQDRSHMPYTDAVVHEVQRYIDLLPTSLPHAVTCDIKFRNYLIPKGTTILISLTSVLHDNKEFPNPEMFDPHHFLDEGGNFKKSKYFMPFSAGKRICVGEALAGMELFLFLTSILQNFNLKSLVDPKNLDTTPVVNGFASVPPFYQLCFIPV
Sequence of Cytochrome P450 2D6 (P10635 whole entry): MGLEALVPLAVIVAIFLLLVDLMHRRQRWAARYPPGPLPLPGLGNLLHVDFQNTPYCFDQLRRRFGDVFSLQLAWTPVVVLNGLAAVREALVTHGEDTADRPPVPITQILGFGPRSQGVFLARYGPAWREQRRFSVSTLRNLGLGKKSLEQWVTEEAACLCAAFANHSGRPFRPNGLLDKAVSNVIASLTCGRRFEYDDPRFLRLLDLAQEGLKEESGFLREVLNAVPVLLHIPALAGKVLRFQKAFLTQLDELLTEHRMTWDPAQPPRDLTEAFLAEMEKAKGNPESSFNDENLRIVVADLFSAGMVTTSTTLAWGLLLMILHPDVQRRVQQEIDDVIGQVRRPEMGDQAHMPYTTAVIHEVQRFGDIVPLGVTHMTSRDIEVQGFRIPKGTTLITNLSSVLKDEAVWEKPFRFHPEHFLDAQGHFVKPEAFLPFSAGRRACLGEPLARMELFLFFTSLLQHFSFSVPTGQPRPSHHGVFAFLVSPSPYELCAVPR
Sequence of Luciferin 4-monooxygenase (P08659 whole entry): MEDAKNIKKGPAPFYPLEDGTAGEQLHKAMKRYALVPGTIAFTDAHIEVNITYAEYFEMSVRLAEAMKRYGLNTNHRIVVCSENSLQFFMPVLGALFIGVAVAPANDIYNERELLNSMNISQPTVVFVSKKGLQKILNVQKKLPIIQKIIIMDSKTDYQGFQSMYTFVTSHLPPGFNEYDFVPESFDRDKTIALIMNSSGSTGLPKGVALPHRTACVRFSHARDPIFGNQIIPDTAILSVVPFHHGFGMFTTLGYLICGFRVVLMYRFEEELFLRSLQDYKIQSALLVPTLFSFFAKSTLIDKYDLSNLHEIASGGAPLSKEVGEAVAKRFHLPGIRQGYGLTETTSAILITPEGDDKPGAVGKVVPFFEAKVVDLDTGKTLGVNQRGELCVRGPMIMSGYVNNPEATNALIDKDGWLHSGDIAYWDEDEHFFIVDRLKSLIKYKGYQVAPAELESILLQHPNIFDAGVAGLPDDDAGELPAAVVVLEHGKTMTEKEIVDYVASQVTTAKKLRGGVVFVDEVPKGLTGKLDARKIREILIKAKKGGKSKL

## Cc1ccc(NS(=O)(=O)c2ccccc2Cl)c2c1CC(C)(C)O2
Cytochrome P450 2D6
  AC50: 15.8 µM (inconclusive)
Cytochrome P450 2C9 [1]
  AC50: inconclusive
[2]
  IC50: > 80 µM (inactive)

## COc1ccccc1-c1cc2nc(C)c(CCC(=O)NC(C)CCc3ccco3)c(C)n2n1 (centres undefined)
[3]
  EC50: > 50 µM (active)

## Cc1cc(Cl)ccc1OCCCC(=O)N1CCCc2ccccc21
[3]
  EC50: > 50 µM (active)

## COc1ccc(C(=O)c2c3ccc([N+](=O)[O-])cc3[n+]([O-])n2CCCN)cc1
Vero
  CC50: 30.6 µM (active)
[4]
  IC50: 9.21 µM (active)
[5]
  IC50: 14.4 µM (active)

## CCn1cc(/C=C/C(=O)Nc2ccn(Cc3c(F)c(F)cc(F)c3F)n2)cn1
[4]
  IC50: 9.64 µM (active)
[5]
  IC50: 28.9 µM (active)

## CCN1CCCC1CNC(=O)c1cc2cc(F)ccc2[nH]1 (centres undefined)
[3]
  EC50: > 50 µM (active)

## CCCCCCC(=O)N(O)C1CC(=O)N(Cc2ccccc2)C1=O (centres undefined)
[3]
  EC50: > 50 µM (active)

## CC1(C)CC[C@]2(C(=O)O)C(O)C[C@@]3(C)C(=CCC4[C@@]5(C)CCC(O)C(C)(C)C5CC[C@@]43C)C2C1 (some centres undefined)
Cytochrome P450 3A4
  AC50: 15.8 µM (inconclusive)

## CCOC(=O)c1ccc(NC(=O)CN2CCc3ccccc3C2)cc1
[4]
  IC50: 21.6 µM (active)
[5]
  IC50: > 100 µM (inactive)

## O=C(Nc1ccccc1)Oc1cccnc1O
[3]
  EC50: > 50 µM (active)

## COc1ccccc1NS(=O)(=O)c1cccc(NC2=NC(=N)c3ccccc32)c1
Escherichia coli
  AC50: 99.5 µM (active)

## COC(=O)C1(S(=O)(=O)C2(C(=O)OC)CCCC2)CCCC1
Escherichia coli
  AC50: > 150 µM (inactive)

## CC(C)Sc1nc2c(c(=O)[nH]c(=O)n2C)n1CCc1ccccc1
Escherichia coli
  AC50: 33.2 µM (active)

## CCCn1c(-c2ccc(F)cc2)nc2c(NCC3CCCN3CC)nc(C)nc21 (centres undefined)
Cytochrome P450 3A4
  AC50: 15.8 µM (inconclusive)

## CC(=O)OC1CC2C(C)(C)C(O)CCC2(C)C2CC[C@]3(C)C(=CC(=O)OC3c3ccoc3)C12C (some centres undefined)
Cytochrome P450 3A4
  AC50: 39.8 µM (inconclusive)

## COc1ccc(NC(=O)c2cc(Br)c(Br)s2)cn1
[3]
  EC50: > 50 µM (active)

## COc1ccc(CCn2c(NN)nc3c2c(=O)[nH]c(=O)n3C)cc1
[2]
  IC50: 50.2 µM (inactive)

## COc1ccccc1NC(=O)CN1CCN(c2ccccc2)CC1
[3]
  EC50: > 50 µM (active)

## Clc1ccc2nc(-c3ccc4c(c3)OCO4)cn2c1
HEK293
  AC50: 4.13 µM (active)
[2]
  IC50: > 80 µM (inactive)

## CN1CCN(C(=O)/C=C\c2ccc(Cl)cc2)CC1
Beta-galactosidase
  IC50: > 80 µM (inactive)

## C[N+]1(C)CCC(=C2c3ccccc3CC(=O)c3sccc32)CC1
[4]
  IC50: 12.6 µM (active)
[5]
  IC50: 30.4 µM (active)

## CC(=O)N(Cc1ccc(F)cc1)c1cccc(C)c1C
Escherichia coli
  AC50: 23.7 µM (active)

## Cn1c(-c2ccccc2)cnc1SCC(=O)N1CCCCC1
[6]
  EC50: 5.72 µM (active)
HT-1080
  EC50: > 50 µM (not active)
[7]
  EC50: 8.1 µM (inconclusive)
HEK293
  AC50: 2.47 µM (active)
[8]
  EC50: 22.8 µM (active)
[9]
  EC50: 3.2 µM (active)

## COc1cccc(C(=O)Nc2nnc(C(C)C)s2)c1
[2]
  IC50: 52.7 µM (inactive)

## O=C(Nc1ccc(Oc2ccccc2)nc1)C1CCCCN1Cc1cccc(O)c1 (centres undefined)
Beta-galactosidase
  IC50: > 80 µM (inactive)

## Cc1ccccc1NC1=NC(=S)N(c2ccccc2)C12CCOC(C)(C)C2 (centres undefined)
Cytochrome P450 2C9 [10]
  AC50: 11.2 µM (inconclusive)
Escherichia coli
  AC50: 22.6 µM (active)

## COc1ccc(CCn2c(NN=C(C)C)nc3c2c(=O)[nH]c(=O)n3C)cc1
[2]
  IC50: 77.8 µM (inactive)

## O=C1CCN(Cc2ccccc2)C=C1c1ccc2ccccc2c1
Beta-galactosidase
  IC50: > 80 µM (inactive)

## O=C(CSc1cccc[n+]1[O-])Nc1ccccc1C(F)(F)F
Escherichia coli
  AC50: 48.6 µM (active)

## Cc1ccc(C(=O)NNC(=O)CSc2nnc(-c3ccccc3)n2Cc2ccccc2)cc1
Beta-galactosidase
  IC50: > 80 µM (inactive)

## O=C(N/N=C/c1cc(Br)cc(Br)c1O)c1ccccc1O
[11]
  AC50: 1.85 µM (active)

## C[C@@H]1CCCCO[C@H](CN(C)S(=O)(=O)c2ccc(Cl)cc2)[C@@H](C)CN([C@H](C)CO)C(=O)c2cc(NC(=O)Nc3ccc(C(F)(F)F)cc3)ccc2O1
[11]
  AC50: 3 µM (active)

## Cc1ccc(S(=O)(=O)Nc2ccc3c(c2)CC(=O)N([C@@H](C)CO)C[C@@H](C)[C@@H](CN(C)S(=O)(=O)c2ccc(C)cc2)O3)cc1
[11]
  AC50: 6.15 µM (active)

## C[C@H](CO)N1C[C@H](C)[C@@H](CN(C)Cc2ccc(C(=O)Nc3ccccc3N)cc2)Oc2c(NC(=O)Nc3ccccc3)cccc2C1=O
[11]
  AC50: 1.61 µM (active)

## CCC(CC)C(=O)N(C)c1c(C)nc2c(OCC=C(C)C)cccn12
[4]
  IC50: 33.4 µM (active)
[5]
  IC50: > 100 µM (inactive)

## C[C@H]1CN([C@@H](C)CO)C(=O)Cc2cc(NC(=O)CCC(F)(F)F)ccc2O[C@H]1CN(C)Cc1ccc(C(=O)Nc2ccccc2N)cc1
[11]
  AC50: 5.91 µM (active)

## C[C@@H]1CN([C@@H](C)CO)C(=O)c2cccc(NC(=O)Nc3ccc(F)cc3)c2O[C@H]1CN(C)Cc1ccc(C(=O)Nc2ccccc2N)cc1
[11]
  AC50: 0.46 µM (active)

## C[C@H]1CN([C@@H](C)CO)C(=O)c2cccc(NC(=O)Nc3ccc(F)cc3)c2O[C@H]1CN(C)Cc1ccc(C(=O)Nc2ccccc2N)cc1
[11]
  AC50: 2.74 µM (active)

## COc1cc(OC)c([N+](=O)[O-])cc1/C=N/NC(=O)c1ccncc1
[4]
  IC50: 9.81 µM (active)
[5]
  IC50: 12.3 µM (active)
[12]
  AC50: > 20 µM (inactive)

## O=C(/C=C(\O)c1ccccc1)c1ccccc1O [2',beta-DIHYDROXYCHALCONE]
Cytochrome P450 3A4
  AC50: 15.8 µM (inconclusive)

## COc1ccc(C2CC(=O)c3ccc(OC)cc3O2)cc1 (centres undefined) [LIQUIRITIGENIN DIMETHYL ETHER]
Cytochrome P450 3A4
  AC50: 20 µM (inconclusive)

## CC1=C(/C=C/C(C)=C/C=C/C(C)=C/C=O)C(C)(C)CCC1 [RETINAL]
Cytochrome P450 3A4
  AC50: 12.6 µM (inconclusive)
